Laboratory results as given in article PMC5218480 (PLoS ONE, 2017).

System: MV-4-11 cells
Assay: Gene expression microarray analysis (Affymetrix PrimeView) and GSEA
Assay type: cell-based, human
Design: RFU PODN (11730768_x_at) / Fold change /veh PODN (11730768_x_at) / RFU LINC00158 (11744669_a_at) / Fold change /veh LINC00158 (11744669_a_at) / RFU DUSP10 (11751237_a_at) / Fold change /veh DUSP10 (11751237_a_at) / RFU ID3 (11757404_x_at) / Fold change /veh ID3 (11757404_x_at) / RFU PLEKHG5 (11737974_s_at) / Fold change /veh PLEKHG5 (11737974_s_at) / RFU LRRC4B (11730491_at) / Fold change /veh LRRC4B (11730491_at) / RFU GIMAP4 (11747438_a_at) / Fold change /veh GIMAP4 (11747438_a_at) / RFU KRT8 (11758183_x_at) / Fold change /veh KRT8 (11758183_x_at) / RFU CNN1 (11734310_a_at) / Fold change /veh CNN1 (11734310_a_at) / RFU VPS37D (11726825_at) / Fold change /veh VPS37D (11726825_at) / RFU C10orf10 (11716522_x_at) / Fold change /veh C10orf10 (11716522_x_at) / RFU KIR2DL2 /// KIR2DL4 /// KIR2DL5A /// KIR2DL5B /// KIR2DS1 /// KIR2DS2 /// KIR2DS3 /// KIR2DS4 /// KIR3DL3 /// KIR3DL3 /// KIR3DS1 (11738374_at) / Fold change /veh KIR2DL2 /// KIR2DL4 /// KIR2DL5A /// KIR2DL5B /// KIR2DS1 /// KIR2DS2 /// KIR2DS3 /// KIR2DS4 /// KIR3DL3 /// KIR3DL3 /// KIR3DS1 (11738374_at) / RFU C1QL1 (11718748_at) / Fold change /veh C1QL1 (11718748_at) / RFU TMPRSS4 (11747572_a_at) / Fold change /veh TMPRSS4 (11747572_a_at) / RFU HAMP (11756126_x_at) / Fold change /veh HAMP (11756126_x_at) / RFU RNFT2 (11725882_a_at) / Fold change /veh RNFT2 (11725882_a_at) / RFU NR4A2 (11747474_a_at) / Fold change /veh NR4A2 (11747474_a_at) / RFU ABCC12 (11746883_a_at) / Fold change /veh ABCC12 (11746883_a_at) / RFU TMEM136 (11760407_x_at) / Fold change /veh TMEM136 (11760407_x_at) / RFU CLDN22 /// WWC2 (11732394_at) / Fold change /veh CLDN22 /// WWC2 (11732394_at) / RFU HLA-DPB1 (11760878_x_at) / Fold change /veh HLA-DPB1 (11760878_x_at) / RFU SPINT1 (11716480_a_at) / Fold change /veh SPINT1 (11716480_a_at) / RFU GAP43 (11754022_s_at) / Fold change /veh GAP43 (11754022_s_at) / RFU A4GNT (11735810_at) / Fold change /veh A4GNT (11735810_at) / RFU PRB3 (11715151_x_at) / Fold change /veh PRB3 (11715151_x_at) / RFU TUBB4B (11761932_at) / Fold change /veh TUBB4B (11761932_at) / RFU CAPN14 (11732068_a_at) / Fold change /veh CAPN14 (11732068_a_at) / RFU TMCC2 (11721928_a_at) / Fold change /veh TMCC2 (11721928_a_at) / RFU IRGQ (11745062_a_at) / Fold change /veh IRGQ (11745062_a_at) / RFU FAM174B (11720279_a_at) / Fold change /veh FAM174B (11720279_a_at) / RFU TMPRSS4 (11748680_a_at) / Fold change /veh TMPRSS4 (11748680_a_at) / RFU FAM212B (11763350_a_at) / Fold change /veh FAM212B (11763350_a_at) / RFU PLEKHG5 (11743358_a_at) / Fold change /veh PLEKHG5 (11743358_a_at) / RFU ZSCAN30 (11745921_a_at) / Fold change /veh ZSCAN30 (11745921_a_at) / RFU CMKLR1 (11741424_a_at) / Fold change /veh CMKLR1 (11741424_a_at) / RFU LOC101060620 /// MAPK8IP1 (11723275_at) / Fold change /veh LOC101060620 /// MAPK8IP1 (11723275_at) / RFU SPTSSB (11747773_x_at) / Fold change /veh SPTSSB (11747773_x_at) / RFU PRSS12 (11739890_at) / Fold change /veh PRSS12 (11739890_at) / RFU BIN1 (11741810_x_at) / Fold change /veh BIN1 (11741810_x_at) / RFU WNT11 (11732464_a_at) / Fold change /veh WNT11 (11732464_a_at) / RFU C10orf10 (11716521_a_at) / Fold change /veh C10orf10 (11716521_a_at) / RFU C5orf56 (11738089_at) / Fold change /veh C5orf56 (11738089_at) / RFU CYB561 (11721691_x_at) / Fold change /veh CYB561 (11721691_x_at) / RFU ANKRD19P (11752326_a_at) / Fold change /veh ANKRD19P (11752326_a_at) / RFU OR2T12 /// OR2T33 /// OR2T8 (11738714_s_at) / Fold change /veh OR2T12 /// OR2T33 /// OR2T8 (11738714_s_at) / RFU VCAN (11748164_a_at) / Fold change /veh VCAN (11748164_a_at) / RFU JSRP1 (11732532_at) / Fold change /veh JSRP1 (11732532_at) / RFU KRTAP10-11 (11738290_x_at) / Fold change /veh KRTAP10-11 (11738290_x_at) / RFU MYO3A (11730013_a_at) / Fold change /veh MYO3A (11730013_a_at) / RFU EBF3 (11725865_a_at) / Fold change /veh EBF3 (11725865_a_at) / RFU CAMK2N1 (11719241_x_at) / Fold change /veh CAMK2N1 (11719241_x_at) / RFU C5orf56 (11738088_a_at) / Fold change /veh C5orf56 (11738088_a_at) / RFU OLFML3 (11715873_a_at) / Fold change /veh OLFML3 (11715873_a_at) / RFU LOC100653217 /// NTM (11731650_a_at) / Fold change /veh LOC100653217 /// NTM (11731650_a_at) / RFU MAPK11 (11762145_a_at) / Fold change /veh MAPK11 (11762145_a_at) / RFU FIZ1 (11724087_x_at) / Fold change /veh FIZ1 (11724087_x_at) / RFU OASL (11726364_x_at) / Fold change /veh OASL (11726364_x_at) / RFU SOX15 (11748057_x_at) / Fold change /veh SOX15 (11748057_x_at) / RFU CD79A (11719716_a_at) / Fold change /veh CD79A (11719716_a_at) / RFU HIST1H1D (11736915_at) / Fold change /veh HIST1H1D (11736915_at) / RFU CASKIN2 (11723855_a_at) / Fold change /veh CASKIN2 (11723855_a_at) / RFU LOC730098 (11760151_x_at) / Fold change /veh LOC730098 (11760151_x_at) / RFU OR4N2 (11742367_at) / Fold change /veh OR4N2 (11742367_at) / RFU PRRT2 (11749266_a_at) / Fold change /veh PRRT2 (11749266_a_at) / RFU SNX32 (11753110_a_at) / Fold change /veh SNX32 (11753110_a_at) / RFU CDHR5 (11726645_a_at) / Fold change /veh CDHR5 (11726645_a_at) / RFU RCAN1 (11760418_a_at) / Fold change /veh RCAN1 (11760418_a_at) / RFU FAM167A (11723789_a_at) / Fold change /veh FAM167A (11723789_a_at) / RFU FAM26E (11764081_at) / Fold change /veh FAM26E (11764081_at) / RFU ISYNA1 (11749810_s_at) / Fold change /veh ISYNA1 (11749810_s_at) / RFU ACY1 (11761880_at) / Fold change /veh ACY1 (11761880_at) / RFU 11764098_at / Fold change /veh 11764098_at / RFU SAMD14 (11745864_x_at) / Fold change /veh SAMD14 (11745864_x_at) / RFU NPB (11741838_a_at) / Fold change /veh NPB (11741838_a_at) / RFU TMPRSS6 (11731388_a_at) / Fold change /veh TMPRSS6 (11731388_a_at) / RFU KRTAP10-2 (11738614_at) / Fold change /veh KRTAP10-2 (11738614_at) / RFU ARHGAP8 /// PRR5-ARHGAP8 (11727945_x_at) / Fold change /veh ARHGAP8 /// PRR5-ARHGAP8 (11727945_x_at) / RFU KRTAP5-7 /// NADSYN1 (11734609_at) / Fold change /veh KRTAP5-7 /// NADSYN1 (11734609_at) / RFU RASL12 (11751679_a_at) / Fold change /veh RASL12 (11751679_a_at) / RFU CDKN2B (11736163_a_at) / Fold change /veh CDKN2B (11736163_a_at) / RFU PRF1 (11729649_at) / Fold change /veh PRF1 (11729649_at) / RFU, ZNF638 /// ZNF638-IT1 / Fold change vs veh, ZNF638 /// ZNF638-IT1 / RFU, PANK3 / Fold change vs veh, PANK3 / RFU, SH3YL1 / Fold change vs veh, SH3YL1 / RFU, ZEB2 / Fold change vs veh, ZEB2 / RFU, NRIP1 / Fold change vs veh, NRIP1 / RFU, PTTG1IP / Fold change vs veh, PTTG1IP / RFU, CAPN2 / Fold change vs veh, CAPN2 / RFU, MED14 / Fold change vs veh, MED14 / RFU, SNORA58 / Fold change vs veh, SNORA58 / RFU, C1orf63 / Fold change vs veh, C1orf63 / RFU, LRRFIP1 / Fold change vs veh, LRRFIP1 / RFU, NDUFAF7 / Fold change vs veh, NDUFAF7 / RFU, SLC12A2 / Fold change vs veh, SLC12A2 / RFU, IBTK / Fold change vs veh, IBTK / RFU, ESF1 / Fold change vs veh, ESF1 / Fold change vs veh, TMEM50B / RFU, TAOK1 / Fold change vs veh, TAOK1 / RFU, ACBD3 / Fold change vs veh, ACBD3 / RFU, TMA16 / Fold change vs veh, TMA16 / RFU, RWDD3 / Fold change vs veh, RWDD3 / RFU, BCAT1 / Fold change vs veh, BCAT1 / RFU, EDEM3 / Fold change vs veh, EDEM3 / RFU, TMEM33 / Fold change vs veh, TMEM33 / RFU, WDR75 / Fold change vs veh, WDR75 / RFU, AHCTF1 / Fold change vs veh, AHCTF1 / RFU, TFRC / Fold change vs veh, TFRC / RFU, ZDHHC17 / Fold change vs veh, ZDHHC17 / RFU, NOM1 / Fold change vs veh, NOM1 / RFU, ARL8B / Fold change vs veh, ARL8B / RFU, ZBTB11 / Fold change vs veh, ZBTB11 / RFU, TAMM41 / Fold change vs veh, TAMM41 / RFU, KIAA1704 /// LOC100996395 / Fold change vs veh, KIAA1704 /// LOC100996395 / RFU, ING1 / Fold change vs veh, ING1 / RFU, TRMT61B / Fold change vs veh, TRMT61B / RFU, FUBP3 / Fold change vs veh, FUBP3 / RFU, TP53 / Fold change vs veh, TP53 / RFU, TNKS2 / Fold change vs veh, TNKS2 / RFU, ZFP14 / Fold change vs veh, ZFP14 / RFU, ACTR2 / Fold change vs veh, ACTR2 / RFU, PPP3R1 / Fold change vs veh, PPP3R1 / RFU, PIK3R1 / Fold change vs veh, PIK3R1 / RFU, HNRNPA1 / Fold change vs veh, HNRNPA1 / RFU, RNF170 / Fold change vs veh, RNF170 / RFU, ZNF28 / Fold change vs veh, ZNF28 / RFU, RNGTT / Fold change vs veh, RNGTT / RFU, OGT / Fold change vs veh, OGT / RFU, BRD1 / Fold change vs veh, BRD1 / RFU, MARS / Fold change vs veh, MARS / RFU, ZNF655 / Fold change vs veh, ZNF655 / RFU, FAHD1 / Fold change vs veh, FAHD1 / RFU, BDP1 / Fold change vs veh, BDP1 / RFU, LRRCC1 / Fold change vs veh, LRRCC1 / RFU, ARID1A / Fold change vs veh, ARID1A / RFU, ZNF146 / Fold change vs veh, ZNF146 / RFU, ZNF330 / Fold change vs veh, ZNF330 / RFU, GPN3 / Fold change vs veh, GPN3 / RFU, C9orf123 / Fold change vs veh, C9orf123 / RFU, N4BP2L2 / Fold change vs veh, N4BP2L2 / RFU, ARFIP1 / Fold change vs veh, ARFIP1 / RFU, FAM179B / Fold change vs veh, FAM179B / RFU, BCL10 / Fold change vs veh, BCL10 / RFU, UHRF1BP1L / Fold change vs veh, UHRF1BP1L / RFU, BET1 / Fold change vs veh, BET1 / RFU, CNOT2 / Fold change vs veh, CNOT2 / RFU, ZNF268 / Fold change vs veh, ZNF268 / Fold change vs veh, ZNF507 / RFU, DGCR2 / Fold change vs veh, DGCR2 / RFU, WDSUB1 / Fold change vs veh, WDSUB1 / Fold change vs veh, HSP90B1 /// MIR3652 / RFU, ADSS / Fold change vs veh, ADSS / RFU, GK / Fold change vs veh, GK / RFU, ZNF148 / Fold change vs veh, ZNF148 / RFU, TAF9 / Fold change vs veh, TAF9 / RFU, SLC1A5 / Fold change vs veh, SLC1A5 / RFU, SLMO2 / Fold change vs veh, SLMO2 / RFU, ABCC4 / Fold change vs veh, ABCC4 / RFU, LOC101060439 /// RAP1B / Fold change vs veh, LOC101060439 /// RAP1B / RFU, RFX7 / Fold change vs veh, RFX7 / RFU, GTPBP10 / Fold change vs veh, GTPBP10 / RFU, CNEP1R1 / Fold change vs veh, CNEP1R1 / RFU, BIVM-ERCC5 /// ERCC5 / Fold change vs veh, BIVM-ERCC5 /// ERCC5 / RFU, ILF3 / Fold change vs veh, ILF3 / RFU 11762660_at / Fold change /veh 11762660_at / RFU VCAN (11757783_s_at) / Fold change /veh VCAN (11757783_s_at) / RFU DDX43 (11728927_at) / Fold change /veh DDX43 (11728927_at) / RFU KRT8 (11758188_x_at) / Fold change /veh KRT8 (11758188_x_at) / RFU NKD1 (11759106_at) / Fold change /veh NKD1 (11759106_at) / RFU SRD5A1 (11742802_a_at) / Fold change /veh SRD5A1 (11742802_a_at) / RFU TPSAB1 /// TPSB2 (11721975_s_at) / Fold change /veh TPSAB1 /// TPSB2 (11721975_s_at) / RFU GSTM3 (11746129_a_at) / Fold change /veh GSTM3 (11746129_a_at) / RFU IL23R (11737362_x_at) / Fold change /veh IL23R (11737362_x_at) / RFU TMEM51 (11727254_a_at) / Fold change /veh TMEM51 (11727254_a_at) / RFU PIWIL2 (11732686_x_at) / Fold change /veh PIWIL2 (11732686_x_at) / RFU ORM1 (11744905_x_at) / Fold change /veh ORM1 (11744905_x_at) / RFU CCDC152 (11743942_at) / Fold change /veh CCDC152 (11743942_at) / RFU ECM1 (11717891_a_at) / Fold change /veh ECM1 (11717891_a_at) / RFU IL23R (11748794_a_at) / Fold change /veh IL23R (11748794_a_at) / RFU TNFAIP8L3 (11732012_x_at) / Fold change /veh TNFAIP8L3 (11732012_x_at) / RFU MBOAT4 (11741988_at) / Fold change /veh MBOAT4 (11741988_at) / RFU 11764193_at / Fold change /veh 11764193_at / RFU TMEM53 (11763286_at) / Fold change /veh TMEM53 (11763286_at) / RFU MAGEB2 (11727129_at) / Fold change /veh MAGEB2 (11727129_at) / RFU TMEM200A (11744735_a_at) / Fold change /veh TMEM200A (11744735_a_at) / RFU CCDC152 (11751479_a_at) / Fold change /veh CCDC152 (11751479_a_at) / RFU FAM211A (11726209_a_at) / Fold change /veh FAM211A (11726209_a_at) / RFU RGS16 (11746705_a_at) / Fold change /veh RGS16 (11746705_a_at) / RFU VCAN (11755009_s_at) / Fold change /veh VCAN (11755009_s_at) / RFU RHOB (11743442_s_at) / Fold change /veh RHOB (11743442_s_at) / RFU RGS16 (11720943_a_at) / Fold change /veh RGS16 (11720943_a_at) / RFU RGS16 (11720944_at) / Fold change /veh RGS16 (11720944_at) / RFU, VPS4B / Fold change vs veh, VPS4B / RFU, CREB1 / Fold change vs veh, CREB1 / RFU, DNAJC13 / Fold change vs veh, DNAJC13 / RFU, GNAQ / Fold change vs veh, GNAQ / RFU, CDK5R1 / Fold change vs veh, CDK5R1 / RFU, ZRANB3 / Fold change vs veh, ZRANB3 / RFU, CUL4A / Fold change vs veh, CUL4A / RFU, CCNY / Fold change vs veh, CCNY / RFU, UFL1 / Fold change vs veh, UFL1 / RFU, COG3 / Fold change vs veh, COG3 / RFU, DIAPH2 / Fold change vs veh, DIAPH2 / RFU, SKA2 / Fold change vs veh, SKA2 / RFU, AFF3 / Fold change vs veh, AFF3 / RFU, LMF1 / Fold change vs veh, LMF1 / RFU, IPO11 / Fold change vs veh, IPO11 / RFU, DFFB / Fold change vs veh, DFFB / RFU, FOXP1 / Fold change vs veh, FOXP1 / RFU, CARD8 / Fold change vs veh, CARD8 / RFU, STRN3 / Fold change vs veh, STRN3 / RFU, ADK / Fold change vs veh, ADK / RFU, RASSF2 / Fold change vs veh, RASSF2 / RFU, WIPF1 / Fold change vs veh, WIPF1 / RFU, LARP1B / Fold change vs veh, LARP1B / RFU, RASA1 / Fold change vs veh, RASA1 / RFU, RB1 / Fold change vs veh, RB1 / RFU, PPFIA1 / Fold change vs veh, PPFIA1 / RFU, MAT2A / Fold change vs veh, MAT2A / RFU, CCT5 / Fold change vs veh, CCT5 / RFU, WDR92 / Fold change vs veh, WDR92 / RFU, CUX1 / Fold change vs veh, CUX1 / RFU, TTC7A / Fold change vs veh, TTC7A / RFU, TMEM135 / Fold change vs veh, TMEM135 / RFU, DEPTOR / Fold change vs veh, DEPTOR / RFU, CPM / Fold change vs veh, CPM / RFU, DNAJB6 / Fold change vs veh, DNAJB6 / RFU, CACNA2D3 / Fold change vs veh, CACNA2D3 / RFU, DTX4 / Fold change vs veh, DTX4 / RFU, TFCP2 / Fold change vs veh, TFCP2 / RFU, GMCL1 /// GMCL1P1 / Fold change vs veh, GMCL1 /// GMCL1P1 / RFU, AEBP2 / Fold change vs veh, AEBP2 / RFU, SNHG1 /// SNORD22 /// SNORD25 /// SNORD26 /// SNORD27 /// SNORD28 /// SNORD29 /// SNORD31 / Fold change vs veh, SNHG1 /// SNORD22 /// SNORD25 /// SNORD26 /// SNORD27 /// SNORD28 /// SNORD29 /// SNORD31 / Fold change (Aza/veh), C12orf56 (ProbeSet 11735607_a_at) / Fold change (ACY-1035/veh), C12orf56 (ProbeSet 11735607_a_at) / Fold change (Aza/veh), FGFR1OP (ProbeSet 11751329_s_at) / Fold change (ACY-1035/veh), FGFR1OP (ProbeSet 11751329_s_at) / Fold change (Aza/veh), VPS36 (ProbeSet 11739960_a_at) / Fold change (ACY-1035/veh), VPS36 (ProbeSet 11739960_a_at) / RFU SYPL1 (11715823_x_at) / Fold change /veh SYPL1 (11715823_x_at) / RFU IGFBP7 (11715501_s_at) / Fold change /veh IGFBP7 (11715501_s_at) / RFU REEP3 (11722064_at) / Fold change /veh REEP3 (11722064_at) / RFU IGLL1 (11728026_x_at) / Fold change /veh IGLL1 (11728026_x_at): dose or concentration left out as unconfirmed
Conditions: ProbeSet 11720566_at; LIST D

Structure (SMILES): Nc1ccc(-c2cccs2)cc1NC(=O)c1ccc2c(c1)cc(C1CC1)n2CCN1CCOCC1 [ACY-1035]
- Fold change vs veh, BCAT1: 0.85
